# According to patent publication US7405317B2, “Phosphate-bearing prodrugs of sulfonyl hydrazines as hypoxia-selective antineoplastic agents” (priority 2004, dated 2008):
# What was measured:
# [1] = test system: CHO-SCS-II (non-transfected parental line); assay: Aerobic/hypoxic cell survival, parental CHO cells; format: cell-based; details: drug 10 μM
# Procedure: EMT6 or CHO (parental or human cytochrome P-450 reductase transfected) cells, seeded in glass milk dilution bottles, were gassed for 2 hours through a rubber septum fitted with 13 gauge (inflow) and 18 gauge (outflow) needles with a mixture of 5% CO2, oxygen at various concentrations, with the balance of the mixture made up of nitrogen, to establish various hypoxic conditions. Drugs were then injected without disrupting hypoxia. After two hours, cells were collected and plated in a clonogenic assay to determine the surviving fraction, compared to untreated controls.
# For in vitro analysis, KS119W must be converted to KS119OH (1) in an AP-catalyzed reaction shown above in FIG. 2, as the phosphorylated parent drug cannot cross cell membranes. KS119OH is then used in all subsequent in vitro studies shown in this section.
# Like KS119, cytochrome P-450 reductase can activate KS1190H under hypoxic conditions.
# [2] = Maximum tolerated dose (MTD) finding; format: in vivo, mice
# Procedure: In order to fairly select a better compound from two enantiomers of KS119W for future clinical development, finding maximum tolerated dose (MTD) for VNP40541 (R-form) and VNP40551 (S-form) was conducted and the results were shown as Table 3.
# [3] = Toxicity of treatment in tumor-bearing mice (body weight, blood cell count, appearance); format: in vivo; details: three tumor models in mice, edema observed
# Procedure: (§1) The anti-tumor effects of aforementioned prodrugs are evaluated in both solid and liquid tumor models, including the B16-F10 murine melanoma, HTB177 human lung carcinoma models, DLD1 human colon carcinoma, EMT-6 murine mammary gland carcinoma, L1210 murine leukemia, lymphoma, prostate cancer, pancreatic cancer, and head-and-neck cancer. The prodrugs are given intravenously, orally, or intraperitoneally at doses from 10 mg/kg to 2000 mg/kg; they are give at different dosing schedules such as 4 times daily, once daily, or once every several days for up to 60 doses. Testing tumor cells were implanted subcutaneously into mice, which were randomized into groups immediately after tumor cell implantation (Day 0). Mice were injected intraperitoneally (ip) with either a bolus injection of 0.1 mL PBS or drug. The treatment was carried out in a designed dosing schedule. Tumor measurement in three dimensions was determined once a week with the formula L×H×W/2, where L, H, and W represent length, height, and width, respectively. The toxicity of these drugs in mice was mild as determined by body weight loss and animal appearance.
# Efficacies of KS119W and KS119 were compared with equivalence molar doses in EMT-6 tumor and H460 tumor models. KS119W was formulated with 0.25M sodium bicarbonate solution. The treatment was started when tumors researched 150 to 200 mm^3, and lasted up to 2 weeks. KS119 at doses of 80 and 100 mg/kg and KS119W at doses of 97.6 and 121.3 mg/kg were daily administrated into mice via ip injection. […] The toxicity of KS119 and KS119W were dose-dependent. To assess the toxicity of treatment, body weight and peripheral blood cell count were monitored after treatment.
# Combined therapy of KS119W with cytoxan (CTX) was evaluated by using KS119W at dose below the MTD in combination with nontoxic dose of CTX against EMT-6 murine mammary carcinoma and H460 human lung carcinoma in CD-1 nude mice. The tumors were allowed to grow to a size of approximately 200 mm^3. In H460 tumor model, the animals received either with 4 doses 180 mg/kg and 1 dose 240 mg/kg of […] or CTX at dose of 100 mg/kg per dose per animal, ip injecting the drugs on 15, 22, 27, 34 and 43 days after the tumor implantation. In the combination studies, CTX was given two hours after dosing KS119W. […] The inhibition of combination therapy was statistically significant against all control groups with p values of 0.003, 0.015 and 0.038, respectively. Additive toxicity at the doses used for combination was manageable; while the 180 mg/kg qw ×4 doses of KS119W alone caused a maximum net body weight loss of 4.5%, the same dose in combination with 4 doses of CTX at 100 mg/kg per week caused 8.6% weight loss but no death. A similar degree of growth inhibition was also observed with EMT-6 tumor model. […]
# [4] = test system: SHP77 human lung carcinoma; assay: In vivo anti-tumor activity, SHP77 xenograft; parameters: species or system mice; details: SHP77/Scid-Beige; dose VNP40541 110 mpk, VNP40551 85 mpk
# Procedure: as §1
# Efficacy of KS119 was studied in murine tumor model and human xenograft models. EMT-6 murine mammary carcinoma cells (3×10^5 cells/mouse) were implanted subcutaneously into Balb/c mice. […]
# [5] = Short term stability as a function of pH and citrate buffer (HPLC); format: physicochemical; details: 20 mg/mL
# Procedure: The stabilities of VNP40541 were investigated. The sample (20 mg/mL) was dissolved in 20 mM citric acid and titrated to pH 2.0, pH 3.0, pH 4.0, pH 5.0, pH 6.0, and pH 7.0. To control for buffer catalysis, the drug was also titrated to pH 2.0, pH 5.0, and pH 6.0 in the absence of citrate. The samples were stored at 40° C. for 3 hours, 24 hours, and 3 days, and at room temperature for 24 hours, 3 days. Upon completion of each time point, samples were placed in a freezer at −15° C. Control samples of each preparation were also stored in the freezer. Each sample was analyzed by HPLC repetitively, at various time points, to determine the concentration of the respective drug.
smiles,measurement,setting,value
C[C@@H](OC(=O)N(N(CCCl)S(C)(=O)=O)S(C)(=O)=O)c1ccc([N+](=O)[O-])c(OP(=O)(O)O)c1 [VNP40541],Surviving fraction at 0.1% oxygen,[1]; 0.1% oxygen,0.04737
same,Surviving fraction in air,[1]; air,1.086
same,MTD,"[2]; BALB/c mice, × 5",100 mpk
same,MTD,"[2]; Nude CD-1 mice, × 10",140 mpk
same,MTD,"[2]; Scid/Beige mice, × 8",110 mpk
same,toxicity compared between the enantiomers,[3],"lower toxicity, particularly having less edema observed"
same,Inhibition (%),[4],83%
same,"Assay (HPLC, relative to control samples stored at −15° C.)","[5]; pH 2.0, citrate 20 mM, 3 hrs 40° C.",98.8%
same,"Assay (HPLC, relative to control samples stored at −15° C.)","[5]; pH 2.0, citrate 20 mM, 24 hrs 40° C.",92.3%
same,"Assay (HPLC, relative to control samples stored at −15° C.)","[5]; pH 2.0, citrate 20 mM, 24 hrs Room Temp.",99.3%
same,"Assay (HPLC, relative to control samples stored at −15° C.)","[5]; pH 2.0, citrate None, 3 hrs 40° C.",98.9%
same,"Assay (HPLC, relative to control samples stored at −15° C.)","[5]; pH 2.0, citrate None, 24 hrs 40° C.",91.7%
same,"Assay (HPLC, relative to control samples stored at −15° C.)","[5]; pH 2.0, citrate None, 24 hrs Room Temp.",99.4%
same,"Assay (HPLC, relative to control samples stored at −15° C.)","[5]; pH 3.0, citrate 20 mM, 3 hrs 40° C.",98.9%
same,"Assay (HPLC, relative to control samples stored at −15° C.)","[5]; pH 3.0, citrate 20 mM, 24 hrs 40° C.",91.3%
same,"Assay (HPLC, relative to control samples stored at −15° C.)","[5]; pH 3.0, citrate 20 mM, 24 hrs Room Temp.",99.3%
same,"Assay (HPLC, relative to control samples stored at −15° C.)","[5]; pH 4.0, citrate 20 mM, 3 hrs 40° C.",99.8%
same,"Assay (HPLC, relative to control samples stored at −15° C.)","[5]; pH 4.0, citrate 20 mM, 24 hrs 40° C.",92.2%
same,"Assay (HPLC, relative to control samples stored at −15° C.)","[5]; pH 4.0, citrate 20 mM, 24 hrs Room Temp.",100.1%
same,"Assay (HPLC, relative to control samples stored at −15° C.)","[5]; pH 5.0, citrate 20 mM, 3 hrs 40° C.",98.8%
same,"Assay (HPLC, relative to control samples stored at −15° C.)","[5]; pH 5.0, citrate 20 mM, 24 hrs 40° C.",92.2%
same,"Assay (HPLC, relative to control samples stored at −15° C.)","[5]; pH 5.0, citrate 20 mM, 24 hrs Room Temp.",99.4%
same,"Assay (HPLC, relative to control samples stored at −15° C.)","[5]; pH 5.0, citrate None, 3 hrs 40° C.",99.4%
same,"Assay (HPLC, relative to control samples stored at −15° C.)","[5]; pH 5.0, citrate None, 24 hrs 40° C.",92.5%
same,"Assay (HPLC, relative to control samples stored at −15° C.)","[5]; pH 5.0, citrate None, 24 hrs Room Temp.",99.7%
same,"Assay (HPLC, relative to control samples stored at −15° C.)","[5]; pH 6.0, citrate 20 mM, 3 hrs 40° C.",99.0%
same,"Assay (HPLC, relative to control samples stored at −15° C.)","[5]; pH 6.0, citrate 20 mM, 24 hrs 40° C.",93.8%
same,"Assay (HPLC, relative to control samples stored at −15° C.)","[5]; pH 6.0, citrate 20 mM, 24 hrs Room Temp.",98.6%
same,"Assay (HPLC, relative to control samples stored at −15° C.)","[5]; pH 6.0, citrate None, 3 hrs 40° C.",99.3%
same,"Assay (HPLC, relative to control samples stored at −15° C.)","[5]; pH 6.0, citrate None, 24 hrs 40° C.",93.8%
same,"Assay (HPLC, relative to control samples stored at −15° C.)","[5]; pH 6.0, citrate None, 24 hrs Room Temp.",100.0%
same,"Assay (HPLC, relative to control samples stored at −15° C.)","[5]; pH 7.0, citrate 20 mM, 3 hrs 40° C.",99.6%
same,"Assay (HPLC, relative to control samples stored at −15° C.)","[5]; pH 7.0, citrate 20 mM, 24 hrs 40° C.",94.0%
same,"Assay (HPLC, relative to control samples stored at −15° C.)","[5]; pH 7.0, citrate 20 mM, 24 hrs Room Temp.",99.7%
